Assay results taken from ChEMBL document CHEMBL5104111, “Boron-Containing heterocycles as promising pharmacological agents” (Bioorg Med Chem, 2022).
pIC50: −log10 of the molar value. In brackets after ≈: the same amount, converted by molar mass.

Tests used:
LN-229 = experiment: Anticancer activity against human LN-229 cells assessed as cell growth inhibition by trypan blue exclusion assay; assay type: functional, cell-based
[1] = system: Mycolicibacterium smegmatis; experiment: Antibacterial activity against Mycobacterium smegmatis assessed as bacterial growth inhibition; assay type: functional
A549 = experiment: Cytotoxicity against human A549 cells assessed as cell growth inhibition; assay type: functional
Escherichia coli [2] = experiment: Antibacterial activity against Escherichia coli ATCC 25922 assessed as bacterial growth inhibition incubated for 72 hrs by broth microdilution method; assay type: functional
[3] = system: Mycolicibacterium smegmatis; experiment: Antibacterial activity against Mycobacterium smegmatis ATCC 700084 assessed as bacterial growth inhibition incubated for 72 hrs by broth microdilution method; assay type: functional
[4] = system: Mycobacterium tuberculosis; experiment: Antibacterial activity against Mycobacterium tuberculosis H37Rv ATCC 27294 assessed as bacterial growth inhibition by radiometry method; assay type: functional
HepG2 = experiment: Cytotoxicity against human HepG2 cells assessed as cell growth inhibition incubated for 72 hrs by Cell Titer Glo assay; assay type: functional, cell-based; details: HepG2, 72 h
[5] = system: Mycobacterium tuberculosis; experiment: Antibacterial activity against Mycobacterium tuberculosis H37Rv ATCC 25618 assessed as bacterial growth inhibition incubated for 5 days by fluorescence based assay; assay type: functional, organism-based; details: H37Rv ATCC 25618, 120 h
[6] = Protein binding in human serum; assay type: ADME, cell-free; details: read-out: PB (converted)
[7] = Protein binding in mouse plasma; assay type: ADME, cell-free; details: read-out: PB (converted)
Bacillus cereus = experiment: Antibacterial activity against Bacillus cereus assessed as bacterial growth inhibition at 100 ug incubated for 48 hrs by disk diffusion method; assay type: functional; details: read-out: IZ
Aspergillus niger [8] = experiment: Antifungal activity against Aspergillus niger ATCC 20408 assessed as fungal growth inhibition by plate colony counting method; assay type: functional
MDA-MB-231 = experiment: Anticancer activity against human MDA-MB-231 cells assessed as cell growth inhibition incubated for 72 hrs by MTT assay; assay type: functional, cell-based; details: MDA-MB-231, 72 h
MIA PaCa-2 = experiment: Anticancer activity against human MIA PaCa-2 cells assessed as cell growth inhibition incubated for 72 hrs by MTT assay; assay type: functional, cell-based; details: MIA PaCa-2, 72 h
Prototheca zopfii = experiment: Antimicrobial activity against Prototheca zopfii assessed as microbial growth inhibition by CLSI protocol based assay; assay type: functional
Klebsiella aerogenes = experiment: Antibacterial activity against Enterobacter aerogenes ATCC 13048 assessed as bacterial growth inhibition at 10 mg/ml by hollow agar method; assay type: functional; details: read-out: IZ
Escherichia coli [9] = experiment: Antibacterial activity against Escherichia coli assessed as bacterial growth inhibition; assay type: functional
Candida albicans [10] = experiment: Antifungal activity against Candida albicans ATCC 14053 assessed as fungal growth inhibition by broth microdilution method; assay type: functional
Vanrija humicola = experiment: Antifungal activity against Cryptococcus humicola ATCC 9949 assessed as fungal growth inhibition by broth microdilution method; assay type: functional
Aspergillus niger [11] = experiment: Antifungal activity against Aspergillus niger ATCC 16404 assessed as fungal growth inhibition by broth microdilution method; assay type: functional
Fusarium oxysporum = experiment: Antifungal activity against Fusarium oxysporum VKM F-140 assessed as fungal growth inhibition by broth microdilution method; assay type: functional
Candida albicans [12] = experiment: Antifungal activity against Candida albicans assessed as fungal growth inhibition at 25 ug incubated for 48 hrs by disk diffusion method; assay type: functional; details: read-out: IZ
Aspergillus niger [13] = experiment: Antifungal activity against Aspergillus niger assessed as fungal growth inhibition at 25 ug incubated for 48 hrs by disk diffusion method; assay type: functional; details: read-out: IZ
Aspergillus niger [14] = experiment: Antifungal activity against Aspergillus niger assessed as fungal growth inhibition at 50 ug incubated for 96 hrs by disk diffusion method; assay type: functional; details: read-out: IZ
Verticillium dahliae = experiment: Antifungal activity against Verticillium dahliae assessed as fungal growth inhibition at 50 ug incubated for 96 hrs by disk diffusion method; assay type: functional; details: read-out: IZ
Pseudomonas aeruginosa = experiment: Antibacterial activity against Pseudomonas aeruginosa assessed as bacterial growth inhibition by broth microdilution method; assay type: functional
Streptococcus mutans [15] = experiment: Antibiofilm activity against Streptococcus mutans ATCC 27351 assessed as bacterial viability at 0.9 uM by SYTO/PI staining based inverted microscopy relative to control; assay type: functional
Streptococcus mutans [16] = experiment: Antibiofilm activity against Streptococcus mutans ATCC 27351 assessed as bacterial viability at 0.2 uM by SYTO/PI staining based inverted microscopy relative to control; assay type: functional
[17] = Cmax in rat at 25 mg/kg, po; assay type: ADME, organism-based; set-up: dose 25 mg/kg, route po; details: in vivo
[18] = AUC (0 to 24 hrs) in rat at 25 mg/kg, po; assay type: ADME, organism-based; set-up: time < 24 hr, dose 25 mg/kg, route po; details: in vivo
[19] = system: Mycobacterium tuberculosis; experiment: Antibacterial activity against Mycobacterium tuberculosis H37Rv infected in C57BL/6J mouse model of acute TB infection administered once daily for 8 days and measured after 24 hrs; assay type: functional; details: 216 h, time 9 day
[20] = Dose normalized AUC (0 to infinity) in C57BL/6 mouse at 5.5 mg/kg, iv qd measured for 0.083 to 24 hrs post dose by LC-MS/MS analysis; assay type: ADME, organism-based; details: in vivo, time 0.083-24 hrs
[21] = Half life in C57BL/6 mouse at 30 mg/kg, po qd via gavage measured for 0.25 to 24 hrs post dose by LC-MS/MS analysis; assay type: ADME, organism-based; details: in vivo, time 0.25-24 hrs
[22] = AUC (0 to 24 hrs) in C57BL/6 mouse at 30 mg/kg, po qd via gavage measured for 0.25 to 24 hrs post dose by LC-MS/MS analysis; assay type: ADME, organism-based; set-up: dose 30 mg/kg, time 0.25-24 hrs, route po; details: in vivo
[23] = Dose normalized AUC (0 to 24 hrs) in C57BL/6 mouse at 30 mg/kg, po qd via gavage measured for 0.25 to 24 hrs post dose by LC-MS/MS analysis; assay type: ADME, organism-based; details: in vivo, time 0.25-24 hrs
Aspergillus niger [24] = experiment: Antifungal activity against Aspergillus niger assessed as fungal growth inhibition incubated for 48 hrs by agar diffusion method; assay type: functional; details: Aspergillus niger

## CC(C)[C@@H]1[NH2+][B-](c2ccc(F)cc2F)(c2ccc(F)cc2F)OC1=O
LN-229
  pIC50: 4.31

## O=C(NCCOCCOCCNC(=O)c1ccc2c(c1)B(O)OC2)c1ccc2c(c1)COB2O
[1]
  MIC: 0.78 µM
A549
  MIC99: > 10 µM

## NC(=O)N1N=Cc2ccccc2B1O
Escherichia coli [2]
  MIC: 16 µg/mL (≈ 84.7 µM)
[3]
  MIC: 2 µg/mL (≈ 10.6 µM)

## OB1c2ccccc2NC(=S)N1c1ccccc1
[4]
  MIC: 8 µg/mL (≈ 31.5 µM)

## CCS(=O)(=O)N1N=Cc2ccc(Oc3ccc(C(F)(F)F)cc3/C=N/O)cc2B1O
HepG2
  pIC50: < 4.00
[5]
  pIC50: 7.05
[6]
  fraction unbound: 0.12
[7]
  fraction unbound: 0.015

## CCNC(=S)N1N=Cc2c(F)cccc2B1O
Bacillus cereus
  zone of inhibition at 100 µg/disc: 3.4 mm

## Clc1cccc(B2NC(c3ccccc3)=NO2)c1
Aspergillus niger [8]
  MIC: 0.09 µM (≈ 0.0231 µg/mL)

## O=C(NCCCOCCOCCOCCCNC(=O)c1ccc2c(c1)B(O)OC2)c1ccc2c(c1)COB2O
[1]
  MIC: 1.56 µM
A549
  MIC99: > 5 µM

## OB1OCc2ccc(NCc3cc4ccccc4cc3Cl)cc21
MDA-MB-231
  pIC50: 4.92
MIA PaCa-2
  pIC50: 5.57

## O=[N+]([O-])c1ccc([N+]2=C(c3ccccc3)C=C(C(Cl)(Cl)Cl)O[B-]2(F)F)cc1
Prototheca zopfii
  MIC: 0.3 µg/mL (≈ 0.692 µM)

## CCN(CC)c1ccc(B2Oc3ccc(C(C)(C)C)cc3O2)cc1
Klebsiella aerogenes
  zone of inhibition at 10000 µg/mL: 30.3 mm

## CC1=NN2B(OB3c4ccccc4C(C)=NN3C2=O)c2ccccc21
Escherichia coli [9]
  MIC: 32 µg/mL (≈ 97.6 µM)

## C[C@@H]1[C@H](O)[C@@H](C)/C=C/C=C/C=C/C=C/C=C/C=C/C=C/[C@H](O[C@@H]2O[C@H](C)[C@@H](O)[C@H](NS(=O)(=O)c3ccc4c(c3)OB(O)C4)[C@@H]2O)C[C@@H]2O[C@](O)(C[C@@H](O)C[C@@H](O)[C@H](O)CC[C@@H](O)C[C@@H](O)CC(=O)O[C@H]1C)C[C@H](O)[C@H]2C(=O)O
Candida albicans [10]
  MIC: 0.25 µg/mL (≈ 0.223 µM)
Vanrija humicola
  MIC: 0.25 µg/mL (≈ 0.223 µM)
Aspergillus niger [11]
  MIC: 0.25 µg/mL (≈ 0.223 µM)
Fusarium oxysporum
  MIC: 0.25 µg/mL (≈ 0.223 µM)

## C[C@@H]1[C@H](O)[C@@H](C)/C=C/C=C/C=C/C=C/C=C/C=C/C=C/[C@H](O[C@@H]2O[C@H](C)[C@@H](O)[C@H](NC(=O)CCc3ccc4c(c3)OB(O)C4)[C@@H]2O)C[C@@H]2O[C@](O)(C[C@@H](O)C[C@@H](O)[C@H](O)CC[C@@H](O)C[C@@H](O)CC(=O)O[C@H]1C)C[C@H](O)[C@H]2C(=O)O
Candida albicans [10]
  MIC: 0.5 µg/mL (≈ 0.45 µM)
Vanrija humicola
  MIC: 0.5 µg/mL (≈ 0.45 µM)
Aspergillus niger [11]
  MIC: 0.5 µg/mL (≈ 0.45 µM)
Fusarium oxysporum
  MIC: 0.5 µg/mL (≈ 0.45 µM)

## NC(=S)N1N=Cc2ccccc2B1O
Escherichia coli [2]
  MIC: 16 µg/mL (≈ 78 µM)
[3]
  MIC: 4 µg/mL (≈ 19.5 µM)
Candida albicans [12]
  zone of inhibition at 25 µg/disc: 6 mm
Aspergillus niger [13]
  zone of inhibition at 25 µg/disc: 7 mm
Aspergillus niger [14]
  zone of inhibition at 50 µg/disc: 3.1 mm
Verticillium dahliae
  zone of inhibition at 50 µg/disc: 3.7 mm

## Clc1ccc(-c2noc3c2COB(c2ccc(Br)cc2)OC3)cc1
Pseudomonas aeruginosa
  MIC: 25 µg/mL (≈ 61.8 µM)

## O=C(NCCNC(=O)c1ccc2c(c1)B(O)OC2)c1ccc2c(c1)B(O)OC2
[1]
  MIC: 0.78 µM
A549
  MIC99: > 5 µM

## Brc1cccc(B2NC(c3ccccc3)=NO2)c1
Aspergillus niger [8]
  MIC: 0.08 µM (≈ 0.0241 µg/mL)

## O=[N+]([O-])c1cccc(B2NC(c3ccccc3)=NO2)c1
Aspergillus niger [8]
  MIC: 0.09 µM (≈ 0.024 µg/mL)

## COc1ccc(CN(C(=O)Nc2ccccc2)c2ccc3c(c2)B(O)OC3)cc1
MDA-MB-231
  pIC50: 4.94
MIA PaCa-2
  pIC50: 5.08

## O=C(c1ccncc1)N1N=Cc2ccccc2B1OB1c2ccccc2C=NN1C(=O)c1ccncc1
Escherichia coli [9]
  MIC: 4 µg/mL (≈ 8.26 µM)
[1]
  MIC: 32 µg/mL

## CC1(C)COB(c2ccccc2)N1
Streptococcus mutans [15]
  Activity: 60%

## CCCCB1NC(C)(C)CO1
Streptococcus mutans [16]
  Activity: 40%

## CC1(C)OB(O)c2cc(NC(=O)c3ccc(F)cc3C(F)(F)F)ccc21 [ACOZIBOROLE]
[17]
  Cmax: > 10000 ng/mL
[18]
  AUC(0-t) at 24 h: > 100000 ng·h/mL

## NC[C@H]1OB(O)c2c(OCCO)ccc(Cl)c21 [GANFEBOROLE]
[19]
  ED99: 0.4 mg/kg
[20]
  AUC/dose: 2.03 µg·h/mL
[21]
  half-life: 3.6 h
[22]
  AUC: 88200 ng·h/mL
[23]
  AUC/dose: 2.94 µg·h/mL

## OB1OCc2cc(F)ccc21 [TAVABOROLE]
Aspergillus niger [24]
  MIC: 2 µg/mL (≈ 13.2 µM)
